# Laboratory results published in patent US6184209A, “Diabetes treatment” (Alizyme Therapeutics Limited, priority 1996, dated 2001).
# Where a SMILES comes first, the peptide text is derived from it.
# Tests used:
# [1] = tested on: EDL muscles--female mice; assay: 2-deoxy-D-[1-3H]glucose uptake into EDL muscles, female mice; assay type: cell-based; details: 10^-7 M; for increase in the uptake of 2-deoxy-D-glucose into the muscles (%): normal female mice
# Method: (§1) Isolated soleus, EDL (extensor digitorum longus) or diaphragm muscles of normal male and female mice were incubated for 30 min at 37° C. in oxygenated Krebs buffer containing 2-deoxy-D-[1-^3 H]glucose. 2-Deoxy-D-glucose is a derivative of D-glucose which is taken up into muscle by carrier-mediated transport and which accumulates in muscle as 2-deoxy-D-glucose-6-phosphate without further metabolism. The tritiated derivative can therefore be used to determine the uptake into muscle of D-glucose (which itself is metabolised). A COOH-terminal (C-terminal) fragment of β-endorphin and an analogue of a β-endorphin fragment were added to the Krebs buffer. These were the C-terminal dipeptide (glycyl-L-glutamine or glycyl-L-glutamic acid) and CH3 CO-Lys-D-Lys-Sar-Glu, a stable analogue of the C-terminal tetrapeptide of β-endorphin. Pyruvate (2 mM) and 2% bovine serum albumen were also present in the bathing medium surrounding the muscles. The extracellular space in the muscles was determined by including L-[1-^14 C] glucose, which is not transported into muscle via the D-glucose membrane carrier.
# (§2) At the end of the incubation period, the tissue samples were digested in 1 M NaOH at 90° C. and the radioactivity counted by liquid scintillation counting.
# d) EDL muscles--female mice
# Following the procedure outlined in Example 1, it was shown that Gly-Gin in a concentration of 10^-7 M caused a 180% increase in 2-deoxy-D-glucoseuptake in EDL muscles of normal female mice, whilst with Gly-Glu there was an 80% increase.
# [2] = tested on: dopamine-depleted rats; details: rat, in vivo; cited from earlier work
# [3] = tested on: urodele limb; details: in vivo; cited from earlier work
# [4] = tested on: subjects with non-insulin dependent diabetes mellitus (type II); details: type II diabetics, cited from earlier work
# [5] = tested on: EDL muscles--male mice; assay: 2-deoxy-D-[1-3H]glucose uptake into EDL muscles, male mice; assay type: cell-based; details: 10^-9 M
# Method: as §1, §2
# c) EDL muscles--male mice
# [6] = tested on: Diaphragm muscles--female mice; assay: 2-deoxy-D-[1-3H]glucose uptake into diaphragm muscles, female mice; assay type: cell-based; details: 10^-8 M
# Method: as §1, §2
# e) Diaphragm muscles--female mice
# [7] = tested on: Isolated soleus muscles--female mice; assay: 2-deoxy-D-[1-3H]glucose uptake into isolated soleus muscles, female mice; assay type: cell-based; details: 10^-8 M
# Method: as §1, §2
# b) Isolated soleus muscles--female mice
# [8] = tested on: Isolated soleus muscles--male mice; assay: 2-deoxy-D-[1-3H]glucose uptake into isolated soleus muscles, male mice; assay type: cell-based; details: 10^-9 M
# Method: as §1, §2
# a) Isolated soleus muscles--male mice
# [9] = 2.5 mg by intravenous bolus injection
compound,measurement,setting,value
"NCC(=O)N[C@@H](CCC(N)=O)C(=O)O [Gly-Gin, glycyl-L-glutamine] (H-Gly-Gln-OH)",increase in the uptake of 2-deoxy-D-glucose into the muscles (%),[1],180%
Lys-Lys-Gly-Glu (KKGE; printed: Lys-Lys-Gly-Glu) [MPF],turning response of dopamine-depleted rats to D-amphetamine,[2],significant reductions
same,urodele limb regeneration,[3],promoting
"NCC(=O)N[C@@H](CCC(=O)O)C(=O)O [Gly-Glu, glycyl-L-glutamic acid] (H-Gly-Glu-OH)",increase in the uptake of 2-deoxy-D-glucose into the muscles (%),[1],80%
"β-endorphin (YGGFMTSEKSQTPLVTLFKNAIIKNAYKKGE; Beta-endorphin; UniProt P01189 237-267, looked up) [human β-endorphin]",duration of increments in plasma insulin and glucagon,[4]; [9],up to 90 minutes
same,plasma concentrations of insulin and glucagon,[4]; [9],prompt and simultaneous increments
same,progressive decline in plasma glucose: effect of administration,[4]; administration one hour after start of three hour study period,substantially unaffected
insulin,increase in the uptake of 2-deoxy-D-glucose into the muscles (%),[5],150%
same,increase in the uptake of 2-deoxy-D-glucose into the muscles (fold),[5],2.5 fold
same,increase in the uptake of 2-deoxy-D-glucose into the muscles (fold),[1]; female mice,3.5 fold
same,increase in the uptake of 2-deoxy-D-glucose into the muscles (%),[1],250%
same,increase in the uptake of 2-deoxy-D-glucose into the muscles (fold),[6],similar
same,increase in the uptake of 2-deoxy-D-glucose into the muscles (%),[7],~100%
same,increase in the uptake of 2-deoxy-D-glucose into the muscles (fold),[7],approximately 2 fold
same,increase in the uptake of 2-deoxy-D-glucose into the muscles (%),[8],500%
same,increase in the uptake of 2-deoxy-D-glucose into the muscles (fold),[8],6 fold
